For nine compounds, TGI and GI50 results are on record in PubChem BioAssay (NCI).

Molecules are shown by their SMILES. Values joined by “and” are separate entries in the source; they are usually repeats but may differ in a detail not shown here. Equal entries are not always repeated.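 The compound was tested at five concentrations on cells cultured in 96-well plates, with a 48-hour exposure period. At the GI50, growth is halved. Definition used: TGI = concentration required for complete inhibition of growth.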

Some test systems named below: CAKI-1 renal; HCT-15 colon; MALME-3M melanoma; NCI-H23 lung; OVCAR-3 ovarian; PC-3 prostate; RPMI-8226 leukemia; SF-539 CNS; SK-MEL-28 melanoma; UO-31 renal.
Holding throughout (experiment): growth of human tumour cells (NCI), 48 h

With `CC1(C)C(N2CCOCC2)CS1(=O)=O` (stereo not drawn), the TGI in the test with CAKI-1 renal, in the test on HCT-15 colon, in the test with MALME-3M melanoma, with NCI-H23 lung, in the test with OVCAR-3 ovarian and in the test on PC-3 prostate was above 10 µM in each case. Besides, the TGI in the test with RPMI-8226 leukemia, in the test with SF-539 CNS, with SK-MEL-28 melanoma and in the test on UO-31 renal was above 10 µM in each case.

With `Cc1cc(O)ccc1C1=NN(c2ccc(S(N)(=O)=O)cc2)C(=O)CC1`, the GI50 with CAKI-1 renal is 4.08 µM and 4.93 µM; with HCT-15 colon, 2670 nM and 4200 nM; with NCI-H23 lung it was 14.5 µM and 22.5 µM; with OVCAR-3 ovarian it was 2690 nM and 8060 nM; in the test on PC-3 prostate, 23.5 µM and 52.1 µM; in the test on RPMI-8226 leukemia, 2350 nM and 2760 nM. Also, the GI50 in the test with SF-539 CNS was 6.66 µM and 19.4 µM; with SK-MEL-28 melanoma it was 25.7 µM and > 100 µM; in the test with UO-31 renal it was 18100 nM and 35100 nM. The TGI in the test with CAKI-1 renal is 50 µM and 82.1 µM; in the test with HCT-15 colon, 50 µM and > 100 µM; with MALME-3M melanoma it was 50 µM and 59.7 µM; in the test with NCI-H23 lung, 50 µM and > 100 µM; in the test with OVCAR-3 ovarian it was 29.9 µM and 71 µM; with PC-3 prostate it was 50 µM and > 100 µM. Further, the TGI is 50 µM and 23.6 µM with RPMI-8226 leukemia; 50 µM and > 100 µM in the test with SF-539 CNS; 50 µM and > 100 µM in the test on SK-MEL-28 melanoma; 50 µM and > 100 µM with UO-31 renal.

As for `COc1ccc(OC)c(Nc2nc3nonc3nc2Nc2cccc(Br)c2)c1`, the GI50 is 0.811 µM in the test with CAKI-1 renal; 756 nM in the test with HCT-15 colon; 471 nM with MALME-3M melanoma; 0.41 µM with NCI-H23 lung; 600 nM with OVCAR-3 ovarian; 0.454 µM with PC-3 prostate. For the same compound, the GI50 in the test on RPMI-8226 leukemia is 309 nM; in the test on SF-539 CNS, 1.25 µM; in the test with SK-MEL-28 melanoma, 0.779 µM; in the test with UO-31 renal, 622 nM. For the same compound, the TGI in the test on CAKI-1 renal is 15.2 µM; in the test with HCT-15 colon, above 100 µM; in the test with MALME-3M melanoma, 5.52 µM; with NCI-H23 lung, 5.49 µM; with OVCAR-3 ovarian, 21.6 µM; in the test with PC-3 prostate, above 100 µM. For the same compound, the TGI in the test with RPMI-8226 leukemia was 3.05 µM; in the test on SF-539 CNS, 29.5 µM; with SK-MEL-28 melanoma it was above 100 µM; in the test with UO-31 renal it was 53.7 µM.

For `Nc1[nH]nc2nc(-c3cc(Cl)ccc3Cl)cc(-c3ccc(F)cc3)c12`, the GI50 with CAKI-1 renal is 26.9 µM; in the test on HCT-15 colon, 28500 nM; in the test on MALME-3M melanoma, 27200 nM; in the test on NCI-H23 lung, 28.8 µM; in the test with OVCAR-3 ovarian it was 24000 nM; in the test on PC-3 prostate it was 28.3 µM. In addition, the values for the GI50 in the test on RPMI-8226 leukemia, with SK-MEL-28 melanoma and in the test with UO-31 renal were 18400 nM, 36.9 µM and 13800 nM, respectively. Further, the TGI with CAKI-1 renal is above 100 µM; in the test with HCT-15 colon it was above 100 µM; in the test with MALME-3M melanoma, 59.3 µM; in the test with NCI-H23 lung it was 72.1 µM; in the test with OVCAR-3 ovarian it was 65.4 µM; with PC-3 prostate, 90.3 µM. Besides, the TGI is 50.5 µM with RPMI-8226 leukemia, 21.1 µM with SF-539 CNS, above 100 µM with SK-MEL-28 melanoma and 34.7 µM in the test with UO-31 renal.

As to `COc1cc(OCc2ccccc2)c2c(CCC(=O)O)cc(=O)oc2c1` (tested in a mixture with another compound), the TGI in the test on CAKI-1 renal, in the test with HCT-15 colon, with MALME-3M melanoma, in the test with NCI-H23 lung, with OVCAR-3 ovarian and with PC-3 prostate was above 100 µM each time. Besides, the TGI is above 100 µM in the test with RPMI-8226 leukemia, above 100 µM with SF-539 CNS, 99.9 µM with SK-MEL-28 melanoma and above 100 µM in the test with UO-31 renal.

For `Cc1nc2sc(C(=O)Nc3cccc(Br)c3C)c(N)c2cc1C(O)c1ccccc1` (stereo not drawn), the GI50 in the test on CAKI-1 renal is 0.0601 µM; in the test with HCT-15 colon, 34.8 nM; in the test with MALME-3M melanoma, 100 nM; in the test on NCI-H23 lung it was 0.0616 µM; with OVCAR-3 ovarian it was 32 nM; with PC-3 prostate it was 0.0462 µM. Further, the GI50 in the test with RPMI-8226 leukemia is 45.5 nM; in the test on SF-539 CNS, 0.0256 µM; in the test with SK-MEL-28 melanoma, 1.51 µM; in the test on UO-31 renal, 64.3 nM. Further, the TGI was 6.63 µM in the test on CAKI-1 renal; 11.5 µM in the test on HCT-15 colon; 20.5 µM in the test on MALME-3M melanoma; 15 µM in the test with NCI-H23 lung; 1.02 µM in the test with OVCAR-3 ovarian; 37.7 µM with PC-3 prostate. For the same compound, the TGI in the test on RPMI-8226 leukemia worked out at 7.08 µM; with SF-539 CNS it was 0.0733 µM; in the test on SK-MEL-28 melanoma it was 22 µM; in the test on UO-31 renal, 12.5 µM.

As for `COC(=O)[C@]12CC[C@@H](C)[C@H](C)[C@@H]1C1=CC[C@@H]3[C@@]4(C)C(C=O)=C[C@@](C)(CO)[C@@H]4[C@H](O)C[C@@]3(C)[C@]1(C)CC2`, the GI50 is 3.71 µM in the test with CAKI-1 renal; 2110 nM in the test on HCT-15 colon; 2620 nM in the test on MALME-3M melanoma; 2.97 µM with NCI-H23 lung; 2540 nM in the test on OVCAR-3 ovarian; 4.14 µM with PC-3 prostate. Moreover, the GI50 in the test with RPMI-8226 leukemia was 2440 nM; in the test with SF-539 CNS, 10.1 µM; with SK-MEL-28 melanoma, 3.33 µM; with UO-31 renal it was 2280 nM. For the same compound, the TGI in the test with CAKI-1 renal was 16.8 µM; in the test with HCT-15 colon, 6 µM; in the test on MALME-3M melanoma, 10.4 µM; in the test on NCI-H23 lung, 12.2 µM; with OVCAR-3 ovarian it was 7.78 µM; in the test with PC-3 prostate, 18.5 µM. Moreover, the TGI came to 7.74 µM in the test with RPMI-8226 leukemia, 22.8 µM with SF-539 CNS, 12.4 µM in the test with SK-MEL-28 melanoma and 12.2 µM in the test with UO-31 renal.

Take `Cc1ccc(N(C=O)c2c([N+](=O)[O-])cc([N+](=O)[O-])c3c2=[N+]([O-])CN=3)cc1`: the TGI in the test with CAKI-1 renal was above 100 µM; in the test on HCT-15 colon, 34.8 µM; in the test with MALME-3M melanoma, 43.1 µM; in the test on NCI-H23 lung, 68.1 µM; in the test on OVCAR-3 ovarian it was 73.6 µM; with PC-3 prostate it was 47.3 µM. Also, the TGI with RPMI-8226 leukemia is 69.2 µM; with SF-539 CNS, above 100 µM; in the test on SK-MEL-28 melanoma, above 100 µM; in the test on UO-31 renal, above 100 µM.

With `CN1CCC2(CC1)N=C(SCC(=O)Nc1cnc3ccccc3c1)C(c1ccc(Br)cc1)=N2`, the GI50 was 1.64 µM in the test with CAKI-1 renal; 1860 nM in the test on HCT-15 colon; 1780 nM with MALME-3M melanoma; 4.3 µM in the test with NCI-H23 lung; 3290 nM with OVCAR-3 ovarian; 1.77 µM in the test with PC-3 prostate. The GI50 is 2120 nM with RPMI-8226 leukemia, 1.74 µM in the test on SF-539 CNS, 1.79 µM in the test with SK-MEL-28 melanoma and 1370 nM in the test on UO-31 renal. Further, the TGI in the test with CAKI-1 renal came out at 3.94 µM; in the test with HCT-15 colon, 3.76 µM; with MALME-3M melanoma it was 3.36 µM; in the test with NCI-H23 lung, 16.3 µM; with OVCAR-3 ovarian, 12 µM; with PC-3 prostate, 3.74 µM. The TGI with RPMI-8226 leukemia worked out at 4.9 µM; in the test on SF-539 CNS it was 3.41 µM; in the test on SK-MEL-28 melanoma, 3.3 µM; in the test on UO-31 renal, 2.68 µM.
